# Legend:
# 22Rv1 cells [1] = assay: MTS proliferation assay, 22Rv1 prostate cancer cells; type: cell-based
# Protocol: (§1) In a 96-well plate, each well was prepared to contain 50 uL of 50,000 cells in media (HyClone IMDM Modified+4 mM L-Glu, HEPES with 10% Fetal Bovine Serum) to which was added 50 uL media containing either the free nucleoside (cytarabine or gemcitabine) or the conjugate (compound 3 or 16) that achieved the following final concentrations: 0, 0.1, 0.2, 0.5, 1, 3, 10, or 100 uM. The cells were incubated at 37° C. with 5% CO2 for 24, 48 or 72 hours (data trends similarly for all incubation periods while the 48 hour data is shown). The Promega MTS based proliferation assay kit (Promega; CellTiter 96® AQueous Non-Radioactive Cell Proliferation Assay (MTS)) was used as per manufacturer's instructions. In short, to each well 100 uL of MTS/PMS reagent was added and allowed to incubate for approximately 2 hours at 37° C. to achieve a colorimetric indication of active cell metabolism. This was quantitated by reading the visible absorption at 415 nm. The data (FIG. 1) was normalized to the absorption range defined from minimal absorbance (media absent cells and drug present), to maximum absorbance (media with cells in the absence of drug). All points were measured in triplicate and averaged before normalization to a 0-100% range. Data was plotted (FIG. 1) as percent inhibition versus log of the compound concentration. Where sigmodial curve fitting was possible, a four-parameter logistic non-linear regression model equation was used to generate the curves and IC50 values. […] The pulse chase experiments shown in FIG. 2 were done as described above with the one alteration that at either the 10 or 60 time point after addition of drug the media was replaced with drug-free media and the cells were allowed to continue incubation for a total of 48 hours. […] Data points were collected in quintuplicate; error bars show standard deviations. […] Sigmodial curve fitting employed a four-parameter logistic non-linear regression model equation.
# 5TGM1 cells = assay: MTS proliferation assay, multiple myeloma cell line; type: cell-based, rodent; settings: 72 hours, FIG. 3
# Protocol: In a 96-well plate, each well was prepared to contain 50 uL of 50,000 5TGM1 cells in media (HyClone IMDM Modified+4 mM L-Glu, HEPES with 10% Fetal Bovine Serum) to which was added 50 uL media containing cytarabine or compound 3 (MU004-26) that achieved the following final concentrations: 0, 0.1, 0.2, 0.5, 1, 3, 10, or 100 uM. The cells were incubated at 37° C. with 5% CO2 for 24, 48 or 72 hours (data trends similarly for all incubation periods while the 72 hour data is shown). The Promega […] based proliferation assay kit was used as per manufacturer's instructions. In short, to each well 100 uL of MTS/PMS reagent was added and allowed to incubate for approximately 2 hours at 37° C. to achieve a colorimetric indication of active cell metabolism. This was quantitated by reading the visible absorption at 415 nm. The data (FIG. 3) was normalized to the absorption range defined from minimal absorbance—media absent cells and drug present, to maximum absorbance—media with cells in the absence of drug. All points were measured in triplicate and averaged before normalization to a 0-100% range. Data was plotted (FIG. 3) as percent inhibition versus log of the compound concentration. As the FIG. 3 illustrates the Cytarabine IC50=0.5 uM while the Conjugate IC50=1 uM.
# [2] = Conjugate stability in saline and growth media (HPLC); type: physicochemical; settings: for stability in buffers and media: over the time course of experiments
# Protocol: The rapid release of nucleoside or nucleotide from the conjugate into the growth media appeared to be ruled out. To test for this event conjugate 3 was incubated in isotonic saline, sterile media or media that was conditioned by 3 days of cell growth. In conditioned media the cells were removed from the media by centrifugation and conjugate was added to the media and incubated at 37° C. for 0.25, 24 and 72 hours. Proteins and large molecules were removed via precipitation with a 5:4:1 v:v:v mixture of Acetonitrile:methanol:1% Formic acid and subsequent centrifugation. The supernatant (100 uL injection volume) was subjected to HPLC analysis on DNA Pac PA 200 (Dionex, USA) column in a gradient of 400 mM ammonium acetate in 20% acetonitrile (3-40% over 10 minutes).
# [3] = tested on: pancreatic cell lines (Capan2, Panc1 and MiaPaca); assay: MTS proliferation assay, pancreatic cancer cell lines; type: cell-based; settings: 48 hours, FIG. 1
# Protocol: (§2) In a 96-well plate, each well was prepared to contain 50 uL of 50,000 cells in media (HyClone IMDM Modified+4 mM L-Glu, HEPES with 10% Fetal Bovine Serum) to which was added 50 uL media containing either the free nucleoside (cytarabine or gemcitabine) or the conjugate (compound 3 or 16) that achieved the following final concentrations: 0, 0.1, 0.2, 0.5, 1, 3, 10, or 100 uM. The cells were incubated at 37° C. with 5% CO2 for 24, 48 or 72 hours (data trends similarly for all incubation periods while the 48 hour data is shown). The Promega MTS based proliferation assay kit (Promega; CellTiter 96® AQueous Non-Radioactive Cell Proliferation Assay (MTS)) was used as per manufacturer's instructions. In short, to each well 100 uL of MTS/PMS reagent was added and allowed to incubate for approximately 2 hours at 37° C. to achieve a colorimetric indication of active cell metabolism. This was quantitated by reading the visible absorption at 415 nm. The data (FIG. 1) was normalized to the absorption range defined from minimal absorbance (media absent cells and drug present), to maximum absorbance (media with cells in the absence of drug). All points were measured in triplicate and averaged before normalization to a 0-100% range. Data was plotted (FIG. 1) as percent inhibition versus log of the compound concentration. […]
# 22Rv1 cells [4] = assay: Pulse chase (10 or 60 minute exposure) MTS proliferation assay, 22Rv1; type: cell-based; settings: 48 hours in fresh media
# Protocol: as §1
# This was tested for with a 10 or 60 minute pulsed exposure of 22Rv1 cells to compounds, followed by 48 hours of incubation in fresh media. […]
# Capan2 cells = assay: Pulse chase (60 minute exposure) MTS proliferation assay, Capan2; type: cell-based, human; settings: 60 minute pulse, all concentrations tested
# [5] = tested on: subcutaneous Capan-2 tumors; assay: Mouse xenograft model of pancreatic cancer; type: in vivo; settings: nude mice, Capan-2 subcutaneous, 20 mg/kg 3-times per week
# Protocol: FIG. 4 illustrates the conjugate of vitamin B6 and gemcitabine is efficacious in a mouse model of human pancreatic cancer. In this model, immune compromised nude mice were injected subcutaneously with the human pancreatic cell line Capan-2 (˜10^6 cells/100 ul). After tumor growth was detected the animals were randomized and either administered the isotonic saline vehicle control alone or with the gemcitabine conjugate (20 mg/kg; 3-times per week).
# PC3 prostate cancer line = assay: MTS proliferation assay, PC3 prostate cancer cells; type: cell-based; settings: 48 hours, FIG. 1
# Protocol: as §2
structure (smiles),measurement,setting,value
"Cc1ncc(CO)c(CN[P@SP3](=O)(O)OC[C@H]2O[C@@H](n3ccc(N)nc3=O)C(O)C2O)c1O (stereo partly drawn) [Compound 3, 5′-aracytidilic acid N-pyridoxylamide]",fold more potent than araC,"22Rv1 cells [1]; 48 hours, FIG. 1",> 10 fold
same,IC50,5TGM1 cells,1000 nM
same,release of free cytarabine or pyridoxamine (HPLC),"[2]; isotonic saline, sterile media or conditioned media, 37° C., 0.25, 24 and 72 hours",neither free cytarabine nor free pyridoxamine (or any other pyridoxyl based compound) was detected
same,stability in buffers and media,[2],stable
"Cc1ncc(CO)c(CNP(=O)(O)OC[C@H]2O[C@@H](n3ccc(N)nc3=O)C(F)(F)C2O)c1O (stereo partly drawn) [Compound 16, N-pyridoxylamide of 2′-Deoxy-2′,2′-difluoro-5′-cytidylic acid]",fold more potent than Gem alone,[3],2-100 fold
same,fold more potent than Gem,"22Rv1 cells [1]; 48 hours, FIG. 1",up to 7 fold
same,decrease of proliferation beyond that of free gemcitabine,22Rv1 cells [4]; 100 uM pulse for 60 minutes,40%
same,anti-proliferation after pulse,22Rv1 cells [4]; 10 minute pulse,measurable anti-proliferation
same,effect of pulse compared to free Gem,Capan2 cells,more rapid effect
same,stability in buffers and media,[2],stable
same,tumor growth relative to untreated growth,[5],stabilized tumor growth
"Nc1ccn([C@@H]2O[C@H](CO)[C@@H](O)[C@@H]2O)c(=O)n1 [Cytarabine, reference compound]",IC50,5TGM1 cells,500 nM
"Nc1ccn([C@@H]2O[C@H](CO)[C@@H](O)C2(F)F)c(=O)n1 [Gemcitabine, 2′-Deoxy-2′,2′-difluorocytidine, reference compound]",effect on proliferation,"22Rv1 cells [1]; 48 hour exposure, 0.1-10 uM",stimulated proliferation
same,sensitivity to parent drug relative to conjugate,PC3 prostate cancer line,3 fold
same,stimulation of proliferation,22Rv1 cells [4]; 100 uM pulse,10%

# Source: patent US9334300B2, “Vitamin B6 derivatives of nucleotides, acyclonucleotides and acyclonucleoside phosphonates” (MBC PHARMA, INC., priority 2011, dated 2016)
